Peptide text beside a SMILES is read from it.

One experiment addresses T1, IA^k (Mus musculus, UniProt P01910+P06343).
T1 construct: After expressing soluble IA^k and IA^b monomers in a baculovirus system; CLIP peptide, released by thrombin cleavage (cleaved yes); made in house; host or cells: baculovirus system (insect cells; Sf9 is stated only for IA^b)
The experiment in a line: IA^k binding assay (DELFIA competition). The settings on record: soluble thrombin-cleaved IA^k; reference peptide biotinylated HEL 46–61; overnight RT; europium-labeled streptavidin, fluorescence 340/615 nm; mean ± SEM from three to five experiments, three replicates each; read-out: IC50 value, binding to IA^k molecules.

The next experiment has as its target T2, IA^b (Mus musculus, UniProt P14434+P14483).
T2 construct: IA^b constructs were designed to contain the extracellular domains of IA^b-α and IA^b-β; CLIP 88–102 ([…]) with thrombin site (cleaved yes); made in house; host or cells: Sf9 insect cells (baculovirus)
T2 sequence (P14434 24-218 limits assumed): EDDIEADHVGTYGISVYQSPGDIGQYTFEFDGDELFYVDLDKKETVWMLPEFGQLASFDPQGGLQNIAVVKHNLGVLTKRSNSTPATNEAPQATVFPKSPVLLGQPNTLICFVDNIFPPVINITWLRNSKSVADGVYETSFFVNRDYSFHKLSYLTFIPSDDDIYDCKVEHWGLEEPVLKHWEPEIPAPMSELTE
T2 sequence (P14483 28-226 limits assumed): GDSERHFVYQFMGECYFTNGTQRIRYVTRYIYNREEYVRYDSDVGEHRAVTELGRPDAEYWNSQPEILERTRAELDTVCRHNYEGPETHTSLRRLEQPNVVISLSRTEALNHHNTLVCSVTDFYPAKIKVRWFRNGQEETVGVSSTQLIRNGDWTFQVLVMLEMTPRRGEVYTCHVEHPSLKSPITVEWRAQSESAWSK
The experiment in a line: IA^b binding assay (DELFIA competition). The settings on record: soluble thrombin-cleaved IA^b (0.35 µg); competitor 0.00001 µM to 100 µM; biotinylated OVA 323–339 (50 µM) reference; pH 7.0 phosphate; overnight RT; fluorescence 340/615 nm; three to five experiments, three replicates each; read-out: IC50 value, binding to IA^b molecules. From the text:
To determine the binding affinity of Myhc-α 334–352 to IA^b, soluble IA^b molecules were expressed similarly to the IA^k molecule. Briefly, IA^b constructs were designed to contain the extracellular domains of IA^b-α and IA^b-β [43]. The IA^b-β construct consisted of the class II-associated invariant chain peptide (CLIP) 88–102 (VSQMRMATPLLMRPM) and thrombin site to release the CLIP [44]. After expressing the IA^b molecules in baculovirus using Sf9 cells and purifying on an anti-IA^b affinity column (clone, M5/114) (BioXCell, West Lebanon, NH, USA), they were cleaved with thrombin to obtain empty IA^b molecules. […] In addition, anti-IA^b (10 µg/mL) was coated onto white fluorescence 96-well plates (Nunc, Rochester, NY, USA) in 0.2 M sodium phosphate buffer, pH 6.8, overnight, followed by washing and blocking with 2% casein for 2 h at 37 °C. […] Europium-labeled streptavidin was added (1 µg/mL) in dissociation-enhanced lanthanide fluorescence immunoassay (DELFIA®) buffer and then the DELFIA®-enhancement solution (Perkin Elmer, Waltham, MA, USA). Fluorescence intensities were measured at wavelengths of 340/615 nm using a VICTOR® Multilabel Plate Reader (Perkin Elmer), and IC50 values were then determined. […]

A further experiment relates to A/J mice. The settings on record: immunization with CFA; cited from earlier work. From the text: Histologically, the disease process can be classified into lymphocytic, neutrophilic, eosinophilic, granulomatous, and giant cell myocarditis. Of these, lymphocytic myocarditis generally occurs with viral infections. Although most myocarditis-affected individuals may spontaneously recover, up to 20% of them can develop DCM, in which autoimmunity is suspected as an underlying mechanism. […] The immunogenic epitopes can be promiscuous in that they can bind multiple MHC alleles.

Another experiment relates to lymphocytes from Tg mice. The experiment can be described thus: Cytokine analysis, lymphocytes of immunized Tg mice. The settings on record: control peptide, two days. The experiment is classed as cell-based, TCR transgenic mice on C57BL/6 background. As to the method: Myhc-α 334–352 immunizations involved peptide/CFA emulsions containing Mycobacterium tuberculosis H37RA extract (Difco Laboratories, Detroit, MI, USA) with a final concentration of 5 mg/mL. The emulsions were administered subcutaneously (100 µg/mouse) in the inguinal and sternum regions on days 0 and 7. In some experiments, animals received emulsions in the left and right shoulders and on the right and left sides of the hip regions in split doses. Additionally, pertussis toxin (List Biological Laboratories, Campbell, CA, USA) was administered to animals intraperitoneally (100 ng/mouse) on days 0 and 2 after the first immunization.
Lymphocytes were obtained from wild-type (Wt) or Tg mice immunized with or without Myhc-α 334–352. […] Cytokines were analyzed using the LEGENDplex Murine Th cytokine Panel (12-plex or 13-plex; BioLegend). […] Beads were acquired by flow cytometry (FACSCalibur™), and concentrations of cytokines were determined using the LEGENDplex™ data analysis software suite (BioLegend). […]
Figure 6 Tg T cells produce mainly Th1 and Th17 cytokines. […] Cells were stimulated with or without Myhc-α 334–352 or OVA 323–339 (control) at the indicated concentrations for two days, and the culture supernatants were evaluated by cytokine bead array analysis except for IL-4, which was measured by ELISA. […]

For another experiment, the system named is CD4 and CD8 T cells. The settings on record: cited from earlier work. From the text:
In that direction, we sought to create TCR Tg mice specific to Myhc-α 334–352 and made a few observations. […] However, expression of Myhc-α 334–352-specific TCRs in both CD4 and CD8 T cells was not expected. To our knowledge, our Tg model is only the second such example to have been reported, with the earlier example being 1C6 Tg mice specific to myelin olig ...

In the next experiment the test system is BALB/c mice. The settings on record: immunization with CFA; cited from earlier work. From the text:
(§1) Histologically, the disease process can be classified into lymphocytic, neutrophilic, eosinophilic, granulomatous, and giant cell myocarditis. Of these, lymphocytic myocarditis generally occurs with viral infections. Although most myocarditis-affected individuals may spontaneously recover, up to 20% of them can develop DCM, in which autoimmunity is suspected as an underlying mechanism. Although autoantibodies for various antigens—such as cardiac myosin (Myhc), adenine nucleotide translocator (ANT), branched-chain α-ketoacid dehydrogenase kinase (BCKDk), sarcoplasmic/end ...

Another experiment has as its system rats. The settings on record: immunization with CFA; cited from earlier work.
From the text: as §1

Experiment [1] deals with T3, cardiac myosin heavy chain (Myhc)-α peptide on I-Ak (mouse).
T3 peptide: DSAFDVLSFTAEEKAGVYK
The experiment in a line: multimer staining.

As for `CC(C)C[C@H](NC(=O)[C@@H](NC(=O)[C@H](CC(=O)O)NC(=O)[C@H](Cc1ccccc1)NC(=O)[C@H](C)NC(=O)[C@H](CO)NC(=O)[C@@H](N)CC(=O)O)C(C)C)C(=O)N[C@@H](CO)C(=O)N[C@@H](Cc1ccccc1)C(=O)N[C@H](C(=O)N[C@@H](C)C(=O)N[C@@H](CCC(=O)O)C(=O)N[C@@H](CCC(=O)O)C(=O)N[C@@H](CCCCN)C(=O)N[C@@H](C)C(=O)NCC(=O)N[C@H](C(=O)N[C@@H](Cc1ccc(O)cc1)C(=O)N[C@@H](CCCCN)C(=O)O)C(C)C)[C@@H](C)O` [Myhc-α 334–352] (H-DSAFDVLSFTAEEKAGVYK-OH), the IC50 (as a rule, the concentration needed to halve the response being measured) at IA^k was 37.8 ± 10.3 µM; on IA^b it was above 100 µM.

Consider “ANT 21–40: adenine nucleotide translocator 21–40 epitope (VSKTAVAPIERVKLLLQVQH; UniProt P48962 21-40, looked up, fragment)”, for which the “myocarditis induction in A/J mice (in words)” value with A/J mice is “myocarditogenic”.

Turning to ISQAVHAAHAEINEAGR [OVA 323–339], the “cytokine responses (in words)” value with lymphocytes from Tg mice was “lack of cytokine responses”.

In the case of “MOG 35–55: myelin oligodendrocyte glycoprotein 35–55 (GPGYPIRALVGDEAELPCRIS; UniProt Q61885 35-55, looked up, fragment)”, the “T cell stimulation (in words)” value in the experiment with CD4 and CD8 T cells is “stimulate both cell types”.

Regarding “Myhc-α 338–348: truncated version of Myhc-α 334–352 (DVLSFTAEEKA; UniProt Q02566 338-348, looked up, fragment)”, in the experiment on CD4 and CD8 T cells (A/J), the “T cell stimulation by truncated peptide (in words)” value is “could stimulate both CD4 and CD8 T cells”.

On to “Myhc-α 614–643: myocarditogenic epitope in BALB/c mice (SLKLMATLFSTYASADTGDSGKGKGGKKKG; UniProt Q02566 614-643, looked up, fragment)”, for which the “myocarditis induction in BALB/c mice (in words)” value in the experiment with BALB/c mice was “myocarditogenic”.

Turning to “Myhc-α 1304–1320: myocarditogenic epitope in rats (RGKLSYTQQMEDLKRQL; UniProt P02563 1304-1320, looked up, fragment)”, the “myocarditis induction in rats (in words)” value in the experiment on rats is reported as “myocarditogenic”.

Regarding “SERCA2a 971–990: sarcoplasmic/endoplasmic reticulum Ca2^+ adenosine triphosphatase 2a 971–990 epitope (KISLPVILMDETLKFVARNY; UniProt O55143 971-990, looked up, fragment)”, in the experiment with A/J mice, the “myocarditis induction in A/J mice (in words)” value is “myocarditogenic”.

“cTNI 105–122: cardiac troponin I 105–122 epitope (VDKVDEERYDVEAKVTKN; UniProt P48787 105-122, looked up, fragment)”: the “myocarditis induction in A/J mice (in words)” value in the experiment on A/J mice is “myocarditogenic”.

On to “β1AR 181–200: β1 adrenergic receptor 181–200 epitope (TVWAISALVSFLPILMHWWR; UniProt P34971 181-200, looked up, fragment)”, for which the “myocarditis induction in A/J mice (in words)” value in the experiment with A/J mice is recorded as “myocarditogenic”.

B1: Myhc-α 334–352-specific TCR of T cell hybridoma clone C33 (transgenic TCR of the Myhc-α 334–352 TCR Tg mice) (TCR)
alpha TRAV14-1*02 TRAJ42*01 CDR3: CAASAEGSNAKLTF
beta TRBV2*01 TRBJ2-5*01 CDR3: CASSQSLGQDTQYF
For B1, the binding result in experiment [1] is on record as “recognises”.
